Columns and labels:
[1] = system: APPswe/PS-1 double transgenic mice; assay: Immunoblot of synaptic proteins in hippocampus and cortex of treated mice; type: in vivo
GSK-3β = assay: Immunoblot of GSK-3β phosphorylation state and β-catenin in Wt hippocampal slices; type: cell-based, mice
Procedure: The hippocampus and cortex of treated or control transgenic mice were dissected on ice and immediately processed has detailed previously (Toledo & Inestrosa 2010). Briefly, hippocampal and cortical tissues were homogenized in RIPA buffer (10 mM Tris-Cl, pH 7.4, EDTA 5 mM, 1% NP-40, 1% sodium deoxycholate, and 1% SDS) supplemented with a protease inhibitor mixture and phosphatase inhibitors (25 mMNaF, 100 mM Na3VO4 and 30 μM Na4P2O7) using a Potter homogenizator and then passed sequentially through different caliber syringes. Protein samples were centrifuged at 14000 rpm at 4° C. twice for 15 min Protein concentrations were determined using the BCA Protein Assay Kit (Pierce). Samples were resolved by SDS-PAGE followed by immunoblotting on PVDF membranes. Western blot assays were carried out as previously described (Inestrosa et al 2013; Toledo & Inestrosa 2010).
Hippocampal slices were prepared according to standard procedures previously described (Cerpa et al 2010; VarelaNallar et al 2010). Briefly, transverse slices (350 μm) from the dorsal hippocampus were cut under cold artificial cerebrospinal fluid (ACSF, in mM: 124 NaCl, […], 10 D-glucose, 2.69 KCl, 1.25 KH2PO4 2.5 CaCl2, 1.3 MgSO4, y 2.60 NaHPO4) using a V ibratome (Leica VT 1000s, Germany) and incubated in ACSF for 1 h at room temperature. In all experiments, 10 μM picrotoxin (PTX) was added to suppress inhibitory GABAA transmission (Cuitino et al 2010). Slices were transferred to an experimental chamber (2 ml), superfused (3 ml/min, at 20-22° C.) with gassed ACSF and visualized by trans-illumination with a binocular microscope (MSZ-10, Nikon, Melville, N.Y.). […] The paired pulse facilitation index was calculated by ((R2−R1)/R1), where R1 and R2 were the peak amplitudes of the first and second fEPSP respectively. […] Evoked postsynaptic responses were analyzed off-line, using an analysis software (pClampfit, Molecular Devices), which allowed visual detection of events, computing only those events that exceeded and arbitrary threshold.

[2] = Wt hippocampal slices, 10 μM ANDRO for 1 hr (FIG. 5)

C=C1CC[C@@H]2C(C)(CO)C(O)CC[C@@]2(C)C1C/C=C1/C(=O)OCC1O (stereo in doubt) [ANDRO, 3-(2-(Decahydro-6-hydroxy-5-(hydroxymethyl)-5,8a-dimethyl-2-methylenenaphthyl)ethylidene)dihydro-4-hydroxyfuran-2(3H)-one]
PSD-95 and GluA2 levels ([1]; mature Tg mice): increase of PSD-95 and GluA2 levels
total levels of pre-synaptic proteins SYP and VAMP ([1]; young APPswe/PS-1 mice): unaltered
levels of post-synaptic proteins (Shank, GluN2B, GluA2, PSD-95) ([1]; young APPswe/PS-1 mice, hippocampus and cortex): significantly recovers the post-synaptic proteins
levels of β-catenin (GSK-3β; Wt hippocampal slices incubated with ANDRO): increase in the levels of β-catenin
active form of GSK-3β (Tyr-216 phosphorylation) (GSK-3β; [2]): reduction of the active form (Tyr-216)
inactive form of GSK-3β (Ser-9 phosphorylation) (GSK-3β; [2]): increase in the levels of the inactive form of GSK-3P (Ser-9)

Source: US20150352075A1, “Treatment of Alzheimer's and Cognitive Impairment With Andrographolides” (INNOBIOSCIENCE, LLC, priority 2013, published 2015)
